The target in data set [1] is SARS-CoV-2 NSP3 macrodomain (Mac1) (Severe acute respiratory syndrome coronavirus 2, UniProt P0DTD1). Nature of the data set: biochemical. Type of data set: binding.
A further data set concerns the target T1, human macrodomain Targ1 (Homo sapiens, UniProt Q9Y530).
T1 sequence (Q9Y530 with tags, fused parts or gaps): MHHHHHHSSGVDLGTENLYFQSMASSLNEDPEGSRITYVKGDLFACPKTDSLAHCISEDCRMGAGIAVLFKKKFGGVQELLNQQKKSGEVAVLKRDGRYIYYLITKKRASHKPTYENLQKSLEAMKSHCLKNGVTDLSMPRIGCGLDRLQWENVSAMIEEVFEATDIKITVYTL
Nature of the data set: HTRF peptide displacement assay, Targ1. The settings on record: for IC50: dose-response; for binding to the human macrodomain Targ1: in words. It counts as binding. (In general: In TR-FRET formats the signal depends on donor and acceptor labels being close together.)

The next data set is described as follows: Kinetic solubility. The settings on record: phosphate buffered saline, pH 7.4, aqueous buffer, kinetic from dmso stock.
The target in data set [2] is SARS-CoV-2 NSP3 macrodomain (Mac1), P43 crystal form (Severe acute respiratory syndrome coronavirus 2, UniProt P0DTD1). Type of data set: binding. The settings on record: for 1-BDC: PanDDA background density correction; for Total number of conformations: ligand conformations modeled in Mac1 crystal structure; for 2*(1-BDC) (%): occupancy estimate from PanDDA 1-BDC.
For a further data set, the system named is Caco-2 cells. Nature of the data set: in vitro. As to the method:
(§1) Caco-2 cell plates were obtained commercially and were maintained for 21 days at 37°C with 5% CO2. Cells were washed with Hank’s Balanced Salt Solution (HBSS) with 5 mM HEPES for 30 minutes before starting the experiment. Test compound solutions are prepared by diluting DMSO stock into HBSS buffer, resulting in a final DMSO concentration of 0.1%. Prior to the assay, cell monolayer integrity was verified by […] electrical resistance (TEER) to ensure that wells have resistance above the acceptance cut-off (1 kΩ). Transport experiments were initiated by adding test compounds to the apical (75 μl) or basal (250 μl) side. Transport plates were incubated at 37°C in a humidified incubator with 5% CO2. Samples were taken from the donor and acceptor compartments after one hour and analyzed by liquid chromatography with tandem mass spectrometry (LC/MS/MS) using an AB Sciex API 4000 instrument, coupled to a Shimadzu LC-20AD LC Pump system. Samples were separated using a Waters Atlantis T3 dC18 reverse phase HPLC column (20 mm × 2.1 mm) at a flow rate of 0.5 ml/min. The mobile phase consisted of 0.1% formic acid in acetonitrile (solvent A) and 0.1% formic acid in water (solvent B).
(§2) Apparent permeability (Papp) values were calculated using the following equation: Papp=(dQ/dt)/A/C0 where dQ/dt is the initial rate of compound transport across the cell monolayer, A is the surface area of the filter membrane, and C0 is the initial concentration of the test compound, calculated for each direction using a four-point calibration curve by LC/MS/MS.
(§3) Net flux ratio between the two directional transports was calculated by the following equation: Ratio=PappB-A/PappA-B where PappB-A and PappA-B represent the apparent permeability of compounds from the basal-to-apical and apical-to-basal side of the cellular monolayer, respectively. Recovery was calculated based on the compound concentration at the end of the experiment, compared to that at the beginning of the experiment, adjusted for volumes.

The nature of another data set: in vitro. The conditions noted are these: human; for Papp A→B at 1 h / Papp B→A at 1 h: Caco-2. As to the method:
as §1, §2, §3

Data set [3] has as its target T2, human macrodomain MacroD2 (Homo sapiens, UniProt A1Z1Q3).
T2 sequence (A1Z1Q3 with tags, fused parts or gaps): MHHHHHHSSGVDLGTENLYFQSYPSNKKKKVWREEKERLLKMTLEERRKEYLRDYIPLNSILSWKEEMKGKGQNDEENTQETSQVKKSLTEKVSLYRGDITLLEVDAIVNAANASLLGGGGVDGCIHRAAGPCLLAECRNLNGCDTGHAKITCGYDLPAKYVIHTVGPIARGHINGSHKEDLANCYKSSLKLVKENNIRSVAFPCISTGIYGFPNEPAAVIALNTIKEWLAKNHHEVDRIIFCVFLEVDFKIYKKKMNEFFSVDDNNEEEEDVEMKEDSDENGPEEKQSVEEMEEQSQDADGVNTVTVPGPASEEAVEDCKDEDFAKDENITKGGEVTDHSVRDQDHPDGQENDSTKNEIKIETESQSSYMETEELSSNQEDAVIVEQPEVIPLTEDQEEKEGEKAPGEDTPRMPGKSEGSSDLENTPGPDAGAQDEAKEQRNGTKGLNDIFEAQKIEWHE
The data set can be described thus: HTRF peptide displacement assay, MacroD2. It counts as binding. The settings on record: for IC50: dose-response; for binding to the human macrodomain MacroD2: in words.

The nature of the next data set: Microsomal stability. The conditions noted are these: for microsomal CLint at 1 µM / half-life at 1 µM: pH 7.4. Type of data set: in vitro ADME, mouse. As to the method:
The assay was carried out in 96-well plates at 37°C. Reaction mixtures (25 μl) contained a final concentration of 1 μM compound, 0.5 mg/ml liver microsomes protein, and 1 mM NADPH and/or 1 mM UDPGA (with alamethicin) in 100 mM potassium phosphate (pH 7.4) with 3 mM MgCl2. After 0, 15, 30, and 60 minutes, 150 μl of quench solution (100% acetonitrile with 0.1% formic acid) with internal standard was transferred to each well. Reactions containing the same components except the NADPH were prepared as the negative control. Plates were sealed, vortexed, and centrifuged at 4°C for 15 minutes at 4000 rpm.
The extent of metabolism was calculated as the disappearance of compounds, compared to the 0-min time incubation.

The mark [4] stands for this setting: preliminary screen, compound at 200 μM, mean of 3-4 technical replicates, read-out: % competition in HTRF assay.
[5] abbreviates: crystal soak 10 mM, P43 crystals.
Setting [6] is: Caco-2, Caco-2 ratio B-A/A-B, net flux ratio.
Where [7] appears, read: read-out: Human Targ1 HTRF assay: IC50.
Setting [8] is: read-out: Human MacroD2 HTRF assay: IC50.
Where [9] appears, read: liver microsomes, mouse microsomes, read-out: CLint (mouse) (µl/min/mg protein), mean.

Converted amounts (≈) assume the structure as drawn. “And” between values parts separate entries of the source, which are not always exact repeats. Equal entries are not always repeated. Where two headings read alike, the source gives them in different places.

A word on the Hill slope: it is the slope factor of the fitted curve. The IC50 is the point on the concentration scale where inhibition reaches its midpoint. The term kinetic solubility denotes solubility judged after dilution from a stock solution rather than from solid. A word on the Papp A→B: it is the apparent permeability from the apical to the basolateral side of a cell layer. What is called Papp B→A is how fast a substance crosses the layer from the basolateral side. The term efflux ratio denotes the permeability from basolateral to apical divided by that in the opposite direction, in the common usage.

With `CC(c1ccccc1)C(CO)Nc1ncnc2[nH]ccc12` (stereo not drawn) [AVI-3669], in data set [1] (HTRF dose-response fit, Mac1), the Hill slope was 1.2. In addition, the Hill slope in data set [1] (SARS CoV-2 macrodomain HTRF assay, dose-response) is 1.2. Further, in data set [1] (Single dose, concentration 200 μM, read-out: Average % competition), the inhibition at 200 µM was 98%. Further, in data set [1] (setting [4]), the inhibition at 200 µM was 98%. Besides, on human macrodomain Targ1 (Human Targ1 HTRF assay, read-out: IC50), the IC50 was greater than 1000 µM. For the same molecule, the “binding to the human macrodomain Targ1” value on human macrodomain Targ1 is reported as “none”. The molecule also yielded a kinetic solubility at […] in “Kinetic solubility” of 529 µM (≈ 149 µg/mL). For the same molecule, in data set [2], the 1-BDC stood at 0.14, the “Total number of conformations” value worked out at 1 and the “2*(1-BDC) (%)” value is 28%. Also, the X-ray crystal structure result in data set [2] (X-ray crystal structure determined (TRUE)) is recorded as “TRUE”. Moreover, in data set [2] (setting [5]), the “Pandda run, overall: Hit” value is “TRUE” and the “Pandda run, overall: Modeled” value is “TRUE”. In addition, in data set [2] (crystal soak 10 mM), the “PanDDA run, DMSO background map: 1-BDC” value stood at 0.14 and the “PanDDA run, DMSO background map: Hit” value is “TRUE”. Further, the Binding site entry in data set [2] (site of ligand in X-ray crystal structure) is “Adenosine”. Besides, in the data set with Caco-2 cells (human, Caco-2, 1 h), the “Recover Rate (%)” value is 93%. In the data set “in vitro”, the Papp A→B at 1 h stood at 19.4 ×10⁻⁶ cm/s and the Papp B→A at 1 h came out at 14.5 ×10⁻⁶ cm/s. Moreover, in “in vitro” (setting [6]), the efflux ratio at 1 h was 0.7. In “in vitro” (Caco-2, Ratio (B-A/A-B)), the efflux ratio at 1 h is 0.75. Further, in data set [3] (Human MacroD2 HTRF assay, read-out: IC50), the IC50 is greater than 1000 µM. Further, the “binding to the human macrodomain MacroD2” value in data set [3] is recorded as “none”. In “Microsomal stability” (liver microsomes, mouse microsome stability, read-out: CLint (mouse) (µl/min/mg protein), mean), the microsomal CLint at 1 µM is 166 µL/min/mg. In the data set “Microsomal stability” (mouse, microsomes), the half-life at 1 µM was found to be 8.3 min and the microsomal CLint at 1 µM was determined as 166 µL/min/mg.

Molecule `CC(C)(O)[C@H]1CCCN1c1ncnc2[nH]ccc12` [AVI-607, 2-[(2R)-1-{7H-Pyrrolo[2,3-d]pyrimidin-4-yl}pyrrolidin-2-yl]propan-2-ol] had a Hill slope in data set [1] (HTRF dose-response fit, Mac1) of 1.5. The inhibition at 200 µM in data set [1] (Single dose, concentration 200 μM, read-out: SARS CoV-2 macrodomain HTRF assay: Average % competition) came out at 100%. For the same molecule, the “SARS CoV-2 macrodomain HTRF assay: Hillslope” value in data set [1] (dose-response fit) was determined as 1.5. In data set [1] (setting [4]), the inhibition at 200 µM turned out to be 100%. Moreover, on human macrodomain Targ1 (setting [7]), the IC50 is greater than 1000 µM. Moreover, on human macrodomain Targ1, the “binding to the human macrodomain Targ1” value was “none”. The kinetic solubility at […] in the data set “Kinetic solubility” amounted to 518 µM (≈ 128 µg/mL). Further, in data set [2], the 1-BDC was 0.44, the “Total number of conformations” value is reported as 1 and the “2*(1-BDC) (%)” value was 88%. The “Pandda run, overall: Modeling comment” value in data set [2] (crystal soak, soak concentration 10 mM) is reported as “High occupancy, use manual refinement”. Also, the “Pandda run, overall: Hit” value in data set [2] (crystal soak, soak concentration 10 mM, TRUE = ligand hit) is reported as “TRUE”. Besides, in data set [2] (site where the ligand is bound in the X-ray crystal structure), the “X-ray crystallography: Binding site” value is given as “Adenosine”. Besides, in data set [2] (soak concentration 10 mM), the “PanDDA run, DMSO background map: 1-BDC” value was 0.42 and 0.44; the “PanDDA run, DMSO background map: Hit” value was “TRUE”. The “Recover Rate (%)” value with Caco-2 cells (human, Caco-2, 1 h) is on record as 93%. In the data set “in vitro”, this molecule gave a Papp A→B at 1 h of 22 ×10⁻⁶ cm/s and a Papp B→A at 1 h of 15.7 ×10⁻⁶ cm/s. In addition, the efflux ratio at 1 h in the data set “in vitro” (setting [6]) was 0.7. Also, the efflux ratio at 1 h in “in vitro” (Caco-2, Ratio (B-A/A-B)) stood at 0.71. In addition, the IC50 in data set [3] (setting [8]) is greater than 1000 µM. Moreover, the “binding to the human macrodomain MacroD2” value in data set [3] was “none”. In addition, the microsomal CLint at 1 µM in “Microsomal stability” (setting [9]) was determined as 73 µL/min/mg. Also, in “Microsomal stability” (mouse, microsomes), the half-life at 1 µM turned out to be 19 min and the microsomal CLint at 1 µM came to 73 µL/min/mg.

For `C[C@H]1CCCN(c2ncnc3[nH]ccc23)[C@H]1CO` [AVI-3716], the IC50 (at human macrodomain Targ1 (setting [7]); in data set [3] (setting [8])) was greater than 1000 µM in each case. The “binding to the human macrodomain Targ1” value on human macrodomain Targ1 is recorded as “none”. Besides, the kinetic solubility at […] in “Kinetic solubility” is 523 µM (≈ 129 µg/mL). Further, in the data set on Caco-2 cells (Caco-2, compound concentration 5), the “Recover Rate (%)” value is listed as 104%. In “in vitro”, this molecule yielded a Papp A→B at 1 h of 25.9 ×10⁻⁶ cm/s. This molecule showed a Papp B→A at 1 h in the data set “in vitro” of 18.9 ×10⁻⁶ cm/s. Moreover, the “binding to the human macrodomain MacroD2” value in data set [3] was “none”. Besides, the microsomal CLint at 1 µM turned out to be 44.4 µL/min/mg in the data set “Microsomal stability” (setting [9]) and 44.4 µL/min/mg in the data set “Microsomal stability” (mouse, microsomes). For the same molecule, the “Mouse microsome stability: T1/2 (min), mean” value in the data set “Microsomal stability” (mouse microsomes) came out at 31.2 min. Also, in the data set “Microsomal stability” (mouse, microsomes, 1 μM compound, 0.5 mg/ml microsomal protein, read-out: Mouse microsome T1/2), the half-life at 1 µM was 31.2 min.

The record behind these values is paper doi:10.1101/2024.08.25.609621 (bioRxiv, 2024).
